Legend:
T2 cells = test: IFN-γ ELISA of peptide-stimulated CTLs against peptide-pulsed T2 cells; assay type: cell-based, human; details: ELISA of supernatant
Protocol: (§1) The binding of the peptide-primed CTLs to HLA-A2 positive human cells was also tested. To generate dendritic cells, the plastic adherent cells from PBMCs were cultured in AIM-V medium supplemented with recombinant human GM-CSF and recombinant human IL-4 at 37° C. in a humidified incubator with 5% CO2. Six days later, the immature dendritic cells were stimulated with recombinant human TNF-alpha for maturation. Mature dendritic cells were then harvested on day 8, resuspended in PBS at 1×10^6/mL with the indicated peptides (2 μg/mL), and incubated for 2 hours at 37° C. Autologous PBMCs (2×10^6 per well) were cocultured with 2×10^5 per well peptide-pulsed dendritic cells in 2 mL/well of AIM-V medium supplemented with 5% human AB serum and 10 units/mL rhIL-7 (Cell Sciences) in each well of 24-well tissue culture plates.
(§2) On the next day and then every 3 days thereafter, 300 IU/ml of IL-2 was added to the medium. On day 7, lymphocytes were restimulated with autologous dendritic cells in AIM-V medium supplemented with 5% human AB serum, rhIL-2, and rhIL-7 (10 units/mL each). To generate peptide-specific CTLs, CD8 (+) T cells were isolated from healthy donors, then stimulated by autologous DC pulsed with peptide. After three cycle stimulations, these CTLs could efficiently recognize both HLA-A2 and CD133 positive cancer stem cells, as measured by amount of IFN-γ (pg/ml) in supernatant detected by ELISA (Table 2). However, they could not recognize the CD133 positive normal neural stem cells due to their absence of MHC expression.

[1] = test system: HLA-A2 and CD133 positive cancer stem cells (CSC4); test: IFN-γ ELISA of peptide-stimulated CTLs against cancer stem cells; assay type: cell-based, human; details: ELISA of supernatant
Protocol: as §1, §2

[2] = biological target: T1, HLA-A2 molecules (HLA-A*0201) on T2 cells (Homo sapiens, UniProt P04439, D140Y/D185E/D98H/E176V/E277Q/G131W/G231S/I119V/I121R/I166T/I218V/L300P/L318F/N151K/N90K/P208A/P217A/Q86G/Q94H/R138H/R169H/T345S); test: Binding of peptides to HLA-A2 and stability of HLA-A*0201/peptide complexes on T2 cells (BB7.2 mAb staining)
T1 construct: mean fluorescence of peptide preincubated T2 cells; endogenous in cells; host or cells: T2 cells
Protocol: The cells were then incubated with Brefeldin A (Sigma, St. Louis, Mo.) at 10 μg/ml for 1 hour, washed, incubated at 37° C. for 0, 3, or 6 hours in the presence of Brefeldin A (0.5 μg/ml), and then stained with BB7.2 mAb. […] DC50 was defined as the time required for the loss of 50% of the HLA-A*0201/peptide complexes stabilized at t=0.

[3] = test system: CD8 (+) T cells from healthy donors; test: HLA-A*0201/peptide tetramer staining of peptide-induced CTLs, flow cytometry; assay type: cell-based, human
Protocol: To generate peptide-specific CTLs, CD8 (+) T cells were isolated from healthy donors, then stimulated by autologous DC pulsed with peptide. Specific T cells were generated after PBMCs were stimulated by autologous DC pulsed with irradiated, apoptotic cancer stem cells (CSCs). Phycoerythrin-conjugated HLA-A*0201/peptide tetramers were synthesized. The cells were stained with tetramers (5 ng/ml) in PBS+0.5% human AB serum for 1 hour at room temperature, washed once in the same buffer, stained with anti-human CD8-FITC (BD Biosciences) mAbs for 30 minutes at 4° C. followed by flow cytometry analysis.

[4] = biological target: T2, HLA-A2 molecules on T2 cells (Homo sapiens, UniProt P04439, D140Y/D185E/D98H/E176V/E277Q/G131W/G231S/I119V/I121R/I166T/I218V/L300P/L318F/N151K/N90K/P208A/P217A/Q86G/Q94H/R138H/R169H/T345S); test: Binding of mouse CD133 peptide to HLA-A2 on T2 cells (BB7.2 mAb, flow cytometry); details: 0 μM, 10 μM or 100 μM peptide overnight
T2 construct: mean fluorescence of peptide preincubated T2 cells; endogenous in cells; host or cells: T2 cells
Protocol: The mouse counterpart of SEQ ID NO:1, […] (SEQ ID NO:11) also bound to HLA-A2, despite having only two amino acid residues in common. T2 cells were incubated overnight with 0 μM, 10 μM, or 100 μM of SEQ ID NO:11. The cells were then incubated with Brefeldin A (Sigma, St. Louis, Mo.) at 10 μg/ml for 1 hour, washed, incubated at 37° C. in the presence of Brefeldin A ([…]), and then stained with BB7.2 mAb. Fluorescence intensity was measured by flow cytometry.

DC50 (time required for the loss of 50% of the HLA-A*0201/peptide complexes stabilized at t=0) ([2]; 100 μM peptide)	Binding to HLA-A2 / HLA-A*0201 molecules (in words) ([2]; listed as SEQ ID NO:1)	Binding to HLA-A2 / HLA-A*0201 molecules (in words) ([2]; listed as peptide 405)	Cell fluorescence (binding to HLA-A2) [4]	Sequence	IFN-γ induced by PBMC stimulus for CTL generation, target T2 + 117 (T2 cells)	IFN-γ induced by PBMC stimulus for CTL generation, target T2 + 301 (T2 cells)	IFN-γ induced by PBMC stimulus for CTL generation, target T2 + 405 (T2 cells)	IFN-γ induced by PBMC stimulus for CTL generation, target T2 + 708 (T2 cells)	IFN-γ induced by PBMC stimulus for CTL generation, target T2 + 804 (T2 cells)	IFN-γ induced by PBMC stimulus for CTL generation, target T2 only (T2 cells)	IFN-γ induced by PBMC stimulus for CTL generation, target CSC4 [1]	Tetramer positive cell ([3]; CD8+ T cells stimulated by autologous DC pulsed with peptide, PE HLA-A*0201/peptide tetramer and anti-CD8-FITC)	Immunogenicity (in words) ([3]; overall conclusion of Example 1)
				SLNDPLCLV (Homo sapien) [CD133-301]	174 pg/mL	165 pg/mL	185 pg/mL	214 pg/mL	252 pg/mL	179 pg/mL	390 pg/mL		
				GLLERVTRI (Homo sapien) [CD133-708]	281 pg/mL	234 pg/mL	326 pg/mL	286 pg/mL	258 pg/mL	206 pg/mL	403 pg/mL		
				LLFIILMPLV (Homo sapien) [CD133-117]	322 pg/mL	247 pg/mL	262 pg/mL	192 pg/mL	336 pg/mL	275 pg/mL	262 pg/mL		
>6 h	bound strongly	binds relatively strongly		ILSAFSVYV (Homo sapien) [CD133-405]	334 pg/mL	311 pg/mL	2450 pg/mL	394 pg/mL	390 pg/mL	289 pg/mL	2311 pg/mL	3.72%	highly immunogenic
			increased in a dose-dependent manner	MLLQVSHYL (Mus Musculus) [SEQ ID NO:11]									
				FLLPALIFAV (Homo sapien) [CD133-804]	275 pg/mL	148 pg/mL	294 pg/mL	247 pg/mL	409 pg/mL	211 pg/mL	450 pg/mL		

Reference: patent US20170088601A1, “CD133 EPITOPES” (CEDARS-SINAI MEDICAL CENTER, priority 2008, published 2017)
